The results in this text go back to ChEMBL document CHEMBL3507680, “University of Dundee, Gates Library screen for HepG2 cell viability”.

The data set in a line: Human HepG2 cell viability assay in 384 well format. The class given is toxicity, cell-based. Details: dose 125 nL, time 70.5 hour; concentration not given beside the values. The following applies: HepG2 cells, read-out: Inhibition.
As for `CCS(=O)(=O)N1C[C@@H]2COC[C@@H](Cc3nc(C)no3)[C@@H]2C1`, the cytotoxicity at 70.5 h is -2.03%.

Take `Cn1nc(CN2CCCCC2)c2c1CN(C(=O)Nc1cccc(F)c1)C2`: the cytotoxicity at 70.5 h was found to be 11.6%.

For the compound `CC(C)NC(=O)N1CCN(C(=O)c2ccco2)CC2(CC(=O)N(C)C2)C1` (stereo unspecified), the cytotoxicity at 70.5 h is -23.2%.

As for `C[C@H]1C[C@H]2CN(C(=O)c3ccncn3)CC[C@@H]2O1`, the cytotoxicity at 70.5 h is -19.6%.

On to `O=C1COC2(CCN(S(=O)(=O)C3CC3)CC2)CN1c1ccsc1`, for which the cytotoxicity at 70.5 h was -17.5%.

Take `COCC1COCCC12CCN(C(=O)CCc1ccccc1C)CC2` (stereo unspecified): the cytotoxicity at 70.5 h was -5.26%.

For `COCC1COCCC12CCN(C(=O)COc1ccccc1C)CC2` (stereo unspecified), the cytotoxicity at 70.5 h was -2.98%.

As for `c1cnc(N2CCC3(COCc4cnc(N5CCOCC5)nc43)C2)nc1` (stereo unspecified), the cytotoxicity at 70.5 h is -16.6%.

Regarding `CC(C)Nc1ccc2nc(C3CCNCC3)nn2c1`, the cytotoxicity at 70.5 h amounted to 9.18%.

As for `O=C(C1CC1)N1CCC2(COCc3cnc(N4CCOCC4)nc32)C1` (stereo unspecified), the cytotoxicity at 70.5 h is -12.6%.

Take `Cn1nnc2c1C(COCC1CC1)CN(C(=O)Cc1cccs1)C2` (stereo unspecified): the cytotoxicity at 70.5 h was -19.3%.

As to `CN(C)C(=O)C1OC2(CCN(C(=O)N(C)C)CC2)c2ccccc21` (stereo unspecified), the cytotoxicity at 70.5 h is -19.3%.

Regarding `CN(C)C(=O)C1OC2(CCN(C(=O)c3ccoc3)CC2)c2ccccc21` (stereo unspecified), the cytotoxicity at 70.5 h is -14.7%.

As for `COCC1CN(C(=O)Cc2cccs2)Cc2nnn(C)c21` (stereo unspecified), the cytotoxicity at 70.5 h was -14.9%.

On to `Cc1nc(N2CCCC2)nc2c1CCN(C(=O)NC(C)C)CC2`, for which the cytotoxicity at 70.5 h worked out at 30.9%.

Regarding `CC(C)NC(=O)c1cc2c(s1)CCN2C(=O)CN(C)C`, the cytotoxicity at 70.5 h was -4.91%.

In the case of `CC(C)NC(=O)C1CN(C(=O)Cc2ccccc2)CC12CCOCC2` (stereo unspecified), the cytotoxicity at 70.5 h was -13.2%.

As for `COc1ncccc1C(=O)N1CC[C@H]2C[C@@H](c3nccs3)O[C@@H]2C1`, the cytotoxicity at 70.5 h was -23.1%.

`O=C(c1ccccc1)N1CC[C@H]2C[C@@H](c3nccs3)O[C@@H]2C1`: the cytotoxicity at 70.5 h was -17.1%.

Take `CC(C)NC(=O)C1CN(C(=O)Cc2cccc(F)c2)CC12CCOCC2` (stereo unspecified): the cytotoxicity at 70.5 h was found to be 10.1%.

In the case of `CN(C)S(=O)(=O)N1C[C@H]2C[C@H](C(=O)Nc3ccccc3)[C@@H](C1)O2`, the cytotoxicity at 70.5 h is -5.82%.

Regarding `CC(C)CC(=O)N1CC[C@H]2C[C@H](c3nccs3)O[C@@H]2C1`, the cytotoxicity at 70.5 h came out at 2.63%.

Consider `Cc1nc(N2CCCC2)nc2c1CCN(C(=O)NC1CCCC1)CC2`, for which the cytotoxicity at 70.5 h stood at 1.4%.

Turning to `O=C(Nc1ccccc1)[C@H]1C[C@@H]2CN(S(=O)(=O)c3ccccc3)C[C@H]1O2`, the cytotoxicity at 70.5 h is -10.9%.

As for `CCC1=N[C@@]2(CC[C@@H]3CN(CC(=O)N(C)C)C[C@@H]32)C(=O)N1CC(C)C`, the cytotoxicity at 70.5 h was -6.91%.

With `Cc1cc(CN2CCC3(CC2)COC(COc2ccccn2)C3)no1` (stereo unspecified), the cytotoxicity at 70.5 h worked out at 43%.

With `c1cncc(CN2CCn3cc(Cn4cccn4)nc3C2)c1`, the cytotoxicity at 70.5 h was -7.42%.

On to `CNC(=O)[C@H]1C[C@@H]2CN(C(=O)Nc3ccccc3)C[C@H]1O2`, for which the cytotoxicity at 70.5 h was -25.2%.

For `Cc1nc(CN2CC3(CCN(c4nccs4)C3)CC2=O)cs1` (stereo unspecified), the cytotoxicity at 70.5 h is -1.92%.

`CCNc1ncc2c(n1)CN(c1ccc(C)c(C)c1)C2=O`: the cytotoxicity at 70.5 h was -11.2%.

For `CCNc1ncc2c(n1)CN(c1ccc(CC)cc1)C2=O`, the cytotoxicity at 70.5 h is -8.79%.

Turning to `Cc1nn(C)c2cnn(CCCNS(=O)(=O)Cc3ccccc3)c12`, the cytotoxicity at 70.5 h is 10.4%.

In the case of `CC(C)(C)NC(=O)CCn1ncc2c(Cl)cccc21`, the cytotoxicity at 70.5 h is -5.97%.

Take `Cc1nn(C)c(C)c1CNC(=O)CCn1ncc2c(Cl)cccc21`: the cytotoxicity at 70.5 h is -1.2%.

As to `CCn1nc(C)c2ncnc(N3CCCC(C)C3)c21` (stereo unspecified), the cytotoxicity at 70.5 h was 8.26%.

As for `CCn1cc(Cl)c(C(=O)Nc2ccc3c(c2)C(C)(C)C(=O)N3C)n1`, the cytotoxicity at 70.5 h is -16.6%.

As for `Cc1cc(NC(=O)CCn2nc(C)c3ccccc32)n(C(C)C)n1`, the cytotoxicity at 70.5 h was -18%.

On to `CCn1ccc(NC(=O)CN2C(=O)C(C)(C)c3ccccc32)n1`, for which the cytotoxicity at 70.5 h was -11.1%.

Consider `CCCc1nc(NCCCn2cccn2)c2c(n1)c(C)nn2CC`, for which the cytotoxicity at 70.5 h is -4.19%.

Take `CCCc1nc(Nc2cccc(C(N)=O)c2)c2c(n1)c(C)nn2CC`: the cytotoxicity at 70.5 h was -4.15%.

Turning to `CCCc1nc(N2CCCC(C)C2)c2c(n1)c(C)nn2CC` (stereo unspecified), the cytotoxicity at 70.5 h is -4%.

Consider `CCCc1nc(N2CCCCC2)c2c(n1)c(C)nn2CC`, for which the cytotoxicity at 70.5 h came out at 15.4%.

In the case of `Cc1nn(C)c2c(N3CCN(C)CC3)nc(C3CC3)nc12`, the cytotoxicity at 70.5 h is -11.8%.

For the compound `CC(C)(C)NC(=O)COc1ccc(CNCCOc2ccccn2)cc1`, the cytotoxicity at 70.5 h is -2.01%.

As for `CCCc1nc(NCCCn2ccnc2)c2c(n1)c(C)nn2CC`, the cytotoxicity at 70.5 h was -11.1%.

Regarding `CCn1nc(C)c2nc(C(C)C)nc(N3CCOCC3)c21`, the cytotoxicity at 70.5 h was found to be 11.2%.

Consider `CCn1nc(C)c2nc(C(C)C)nc(NCCCn3ccnc3)c21`, for which the cytotoxicity at 70.5 h was -17.9%.

Regarding `CSc1ncnc(NCc2cccs2)c1C#N`, the cytotoxicity at 70.5 h is -10.7%.

For the compound `Cc1cccc2c1cnn2CCCNC(=O)c1ccnn1C`, the cytotoxicity at 70.5 h was -12.7%.

On to `Cc1cccc2c1cnn2CCCNC(=O)C1CC1`, for which the cytotoxicity at 70.5 h was -4.27%.

In the case of `CCCC(=O)NCCCn1ncc2c(C)cccc21`, the cytotoxicity at 70.5 h is -12.9%.

For the compound `CCn1cc(NC(=O)C2CCC(=O)N2Cc2ccco2)cn1` (stereo unspecified), the cytotoxicity at 70.5 h is -6.35%.

As to `Cc1cc(C(=O)N(C)Cc2cccs2)nc(N2CCCCC2)n1`, the cytotoxicity at 70.5 h was -6.38%.

`CCN(CC)C(=O)c1nnsc1-c1ccccc1`: the cytotoxicity at 70.5 h is -10.3%.

As to `CN(C)CCCNC(=O)c1nnsc1-c1ccccc1`, the cytotoxicity at 70.5 h was -8.68%.

For the compound `CC(C)CNC(=O)c1nnsc1-c1ccccc1`, the cytotoxicity at 70.5 h is -11.5%.

In the case of `CCOc1cc(C(=O)N2CCOCC2)cc2occc12`, the cytotoxicity at 70.5 h turned out to be 22.3%.

For the compound `CCOc1cc(C(=O)N2CCN(CC)CC2)cc2occc12`, the cytotoxicity at 70.5 h is -3.29%.

As for `CCN(CC)CCNS(=O)(=O)c1cccc(CSC)c1`, the cytotoxicity at 70.5 h is -8.72%.

Take `CCN(CC)c1nc(C)cc(C(=O)Nc2cnn(CC)c2)n1`: the cytotoxicity at 70.5 h was -12.1%.

For the compound `CCn1ccc(NC(=O)CCc2c(C)nn(C)c2C)n1`, the cytotoxicity at 70.5 h came out at 18.2%.

Regarding `CCN1CC2(CC1=O)CN(Cc1ccc(C)o1)CCN(C(=O)C(C)C)C2` (stereo unspecified), the cytotoxicity at 70.5 h was -16.6%.

Turning to `CN(C)C(=O)CC1CC2(CCN(Cc3ccsc3)CC2)c2ccccc21` (stereo unspecified), the cytotoxicity at 70.5 h is -16.8%.

With `Cn1cccc1C(=O)N1C[C@@H](OCc2ccncc2)[C@@H]2OCCC[C@@H]21`, the cytotoxicity at 70.5 h was -1.09%.

`O=C(NC[C@]12COC[C@H]1CN(Cc1ccco1)C2)c1ccccc1`: the cytotoxicity at 70.5 h is -14.6%.

For the compound `Cc1cccc(CN2CC[C@@H]3[C@@H]2CCN3C(=O)c2cc(C)oc2C)n1`, the cytotoxicity at 70.5 h stood at 13.1%.

Turning to `O=C(C[C@@H]1COC[C@H]2CN(Cc3ccc(F)cc3)C[C@@H]12)N1CCCC1`, the cytotoxicity at 70.5 h came to 2.93%.

Turning to `COCC(=O)N1CCn2c(COc3cccnc3)cnc2C1C` (stereo unspecified), the cytotoxicity at 70.5 h came out at 6.09%.

Regarding `O=S(=O)(C1CC1)N1C[C@@H]2COC[C@]2(COc2ccccn2)C1`, the cytotoxicity at 70.5 h was -18.1%.

In the case of `CS(=O)(=O)N1C[C@H]2CCC[C@@]2(COc2ccccn2)C1`, the cytotoxicity at 70.5 h was -16.1%.

As for `CCS(=O)(=O)N1CCCC2(COCCN(c3ccccn3)C2)C1` (stereo unspecified), the cytotoxicity at 70.5 h is -18.6%.

Turning to `Cn1cc(N2CC3(CCN(Cc4ccccc4)CC3)OCC2=O)cn1`, the cytotoxicity at 70.5 h stood at 52.7%.

As for `CC(C)NC(=O)C1CN(Cc2ccc(F)cc2)CC12CCOCC2` (stereo unspecified), the cytotoxicity at 70.5 h was -10.5%.

On to `Cn1cc(N2CC3(CCN(CC4CC4)CC3)OCC2=O)cn1`, for which the cytotoxicity at 70.5 h is -12.5%.

Take `COC[C@@H]1CCC[C@@]12CN(Cc1ccco1)CCO2`: the cytotoxicity at 70.5 h was -15.7%.

On to `Cc1nc(CN2CC3(CCN(c4cnccn4)C3)CC2=O)cs1` (stereo unspecified), for which the cytotoxicity at 70.5 h is -10.3%.

In the case of `COCCN1CC[C@H](OC)[C@@H]1Cc1ccccc1`, the cytotoxicity at 70.5 h is -0.421%.

In the case of `CCC(CC)C(=O)N1CCOC2(COCCN(CC(=O)NC)C2)C1` (stereo unspecified), the cytotoxicity at 70.5 h was -11.7%.

Turning to `O=C(Cc1ccccn1)N1CCc2ncnc(NC3CCC3)c2CC1`, the cytotoxicity at 70.5 h was -9.73%.

Take `CNC(=O)CN1CCOCC12CCN(Cc1ccncc1)CC2`: the cytotoxicity at 70.5 h is -16.2%.

As to `Cc1cccc(CN2C(=O)CO[C@@H]3CN(Cc4cnn(C)c4)C[C@H]32)c1`, the cytotoxicity at 70.5 h turned out to be 4.73%.

Consider `O=C1COC2(CCN(Cc3cccnc3)CC2)CN1`, for which the cytotoxicity at 70.5 h is 12.3%.

With `Cc1cccc(CN2CC[C@@H]3[C@@H]2CCN3C(=O)c2ccoc2C)n1`, the cytotoxicity at 70.5 h was 0.304%.

Turning to `Cc1ccc2c(n1)N(CC1CC1)CCN(C(=O)c1ccncc1F)C2`, the cytotoxicity at 70.5 h was determined as 0.364%.

With `CC(C)CN1CCN(C(=O)c2ccncc2F)Cc2cccnc21`, the cytotoxicity at 70.5 h was -9.62%.

Regarding `COC1COC2(CCN(Cc3ccc4ccccc4n3)CC2)C1` (stereo unspecified), the cytotoxicity at 70.5 h was -12.9%.

As to `Fc1cccnc1O[C@@H]1CN(Cc2ccco2)[C@@H]2CCCO[C@@H]21`, the cytotoxicity at 70.5 h is -12.4%.

With `Cc1noc(C)c1CN1C[C@H](OCc2ccncc2)[C@H]2OCCC[C@H]21`, the cytotoxicity at 70.5 h is -13.2%.

Regarding `Cc1cnc(N2CCOCC3(CCN(c4ccccn4)C3)C2)nc1` (stereo unspecified), the cytotoxicity at 70.5 h is -9.64%.

With `c1ccc(N2CCC3(COCCN(c4ncccn4)C3)C2)nc1` (stereo unspecified), the cytotoxicity at 70.5 h is -10%.

Turning to `Cn1cc(CN2C[C@@H]3COC[C@H](C(=O)Nc4cccnc4)[C@@H]3C2)cn1`, the cytotoxicity at 70.5 h was found to be 44.2%.

With `CN(C)C(=O)CN1CCn2cc(Cn3cccn3)nc2C1`, the cytotoxicity at 70.5 h is -10.4%.

Regarding `c1ccc(CCN2CCn3cc(Cn4cccn4)nc3C2)cc1`, the cytotoxicity at 70.5 h was -10.6%.

For `Cc1ccc(CN2CCc3onc(COc4cccnc4)c3C2)s1`, the cytotoxicity at 70.5 h was -26.9%.

Regarding `c1ccc(CO[C@H]2CO[C@@]3(CCCN(Cc4cccnc4)C3)C2)nc1`, the cytotoxicity at 70.5 h is -24.8%.

Consider `COc1ncccc1CN1C[C@@H]2COC[C@]2(COc2ccccn2)C1`, for which the cytotoxicity at 70.5 h was -20.4%.
